Reference: patent US20260130395A1, “Water Dispersible Botanical Compositions” (Aquila Black Limited, priority 2021, published 2026)

Experiment: Stability of cannabinoid compounds and Vitamin E components in Beverage 2 (AB Red) by LCMSMS
Assay type: physicochemical

CCCCCc1cc(O)c(C/C=C(\C)CCC=C(C)C)c(O)c1 [CBG, cannabigerol]
Stability of Plant-Derived Cannabinoid Compounds in AB Red (stored at 8° C., 0 days): 4.75 µg/mL
Stability of Plant-Derived Cannabinoid Compounds in AB Red (stored at 8° C., 1 days): 4.62 µg/mL
Stability of Plant-Derived Cannabinoid Compounds in AB Red (stored at 8° C., 2 days): 4.79 µg/mL
Stability of Plant-Derived Cannabinoid Compounds in AB Red (stored at 8° C., 3 days): 4.70 µg/mL
Stability of Plant-Derived Cannabinoid Compounds in AB Red (stored at 8° C., 5 days): 4.75 µg/mL
Stability of Plant-Derived Cannabinoid Compounds in AB Red (stored at 8° C., 8 days): 4.76 µg/mL
Stability of Plant-Derived Cannabinoid Compounds in AB Red (stored at 8° C., 9 days): 4.72 µg/mL
Stability of Plant-Derived Cannabinoid Compounds in AB Red (stored at 8° C., 10 days): 4.68 µg/mL
Stability of Plant-Derived Cannabinoid Compounds in AB Red (stored at 8° C., 11 days): 4.77 µg/mL
Stability of Plant-Derived Cannabinoid Compounds in AB Red (stored at 8° C., 12 days): 4.64 µg/mL
Stability of Plant-Derived Cannabinoid Compounds in AB Red (stored at 8° C., 15 days): 4.68 µg/mL
Stability of Plant-Derived Cannabinoid Compounds in AB Red (stored at 8° C., 16 days): 4.65 µg/mL
Stability of Plant-Derived Cannabinoid Compounds in AB Red (stored at 8° C., 17 days): 4.77 µg/mL
Stability of Plant-Derived Cannabinoid Compounds in AB Red (stored at 8° C., 18 days): 4.67 µg/mL
Stability of Plant-Derived Cannabinoid Compounds in AB Red (stored at 8° C., 19 days): 4.71 µg/mL
Stability of Plant-Derived Cannabinoid Compounds in AB Red (stored at 8° C., 22 days): 4.70 µg/mL
Stability of Plant-Derived Cannabinoid Compounds in AB Red (stored at 8° C., 23 days): 4.66 µg/mL
Stability of Plant-Derived Cannabinoid Compounds in AB Red (stored at 8° C., 24 days): 4.65 µg/mL
Stability of Plant-Derived Cannabinoid Compounds in AB Red (stored at 8° C., 25 days): 4.73 µg/mL
Stability of Plant-Derived Cannabinoid Compounds in AB Red (stored at 8° C., 26 days): 4.68 µg/mL
Stability of Plant-Derived Cannabinoid Compounds in AB Red (stored at 8° C., 29 days): 4.80 µg/mL
Stability of Plant-Derived Cannabinoid Compounds in AB Red (stored at 8° C., 30 days): 4.72 µg/mL
Stability of Plant-Derived Cannabinoid Compounds in AB Red (stored at 8° C., 60 days): 4.70 µg/mL
Stability of Plant-Derived Cannabinoid Compounds in AB Red (stored at 8° C., 90 days): 4.73 µg/mL
Stability of Plant-Derived Cannabinoid Compounds in AB Red (stored at 8° C., 120 days): 4.68 µg/mL
Stability of Plant-Derived Cannabinoid Compounds in AB Red (stored at 8° C., 150 days): 4.67 µg/mL
Stability of Plant-Derived Cannabinoid Compounds in AB Red (stored at 8° C., 180 days): 4.65 µg/mL
Stability of Plant-Derived Cannabinoid Compounds in AB Red (stored at 8° C., 210 days): 4.60 µg/mL
Stability of Plant-Derived Cannabinoid Compounds in AB Red (stored at 8° C., 240 days): 4.68 µg/mL
Stability of Plant-Derived Cannabinoid Compounds in AB Red (stored at 8° C., 270 days): 4.66 µg/mL
Stability of Plant-Derived Cannabinoid Compounds in AB Red (stored at 8° C., 300 days): 4.70 µg/mL
Stability of Plant-Derived Cannabinoid Compounds in AB Red (stored at 8° C., 330 days): 4.60 µg/mL
Stability of Plant-Derived Cannabinoid Compounds in AB Red (stored at 8° C., 360 days): 4.63 µg/mL
Stability of Plant-Derived Cannabinoid Compounds in AB Red (stored at 8° C., 390 days): 4.55 µg/mL
Stability of Plant-Derived Cannabinoid Compounds in AB Red (stored at 8° C., 420 days): 4.58 µg/mL
Stability of Plant-Derived Cannabinoid Compounds in AB Red (stored at 8° C., 450 days): 4.54 µg/mL
Stability of Plant-Derived Cannabinoid Compounds in AB Red (stored at 8° C., 480 days): 4.51 µg/mL
Stability of Plant-Derived Cannabinoid Compounds in AB Red (stored at 8° C., 510 days): 4.40 µg/mL
Stability of Plant-Derived Cannabinoid Compounds in AB Red (stored at 8° C., 540 days): 4.42 µg/mL
Stability of Plant-Derived Cannabinoid Compounds in AB Red (stored at 8° C., 570 days): 4.37 µg/mL
Stability of Plant-Derived Cannabinoid Compounds in AB Red (stored at 21-25° C., 0 days): 4.75 µg/mL
Stability of Plant-Derived Cannabinoid Compounds in AB Red (stored at 21-25° C., 1 days): 4.57 µg/mL
Stability of Plant-Derived Cannabinoid Compounds in AB Red (stored at 21-25° C., 2 days): 4.61 µg/mL
Stability of Plant-Derived Cannabinoid Compounds in AB Red (stored at 21-25° C., 3 days): 4.71 µg/mL
Stability of Plant-Derived Cannabinoid Compounds in AB Red (stored at 21-25° C., 5 days): 4.66 µg/mL
Stability of Plant-Derived Cannabinoid Compounds in AB Red (stored at 21-25° C., 8 days): 4.66 µg/mL
Stability of Plant-Derived Cannabinoid Compounds in AB Red (stored at 21-25° C., 9 days): 4.74 µg/mL
Stability of Plant-Derived Cannabinoid Compounds in AB Red (stored at 21-25° C., 10 days): 4.59 µg/mL
Stability of Plant-Derived Cannabinoid Compounds in AB Red (stored at 21-25° C., 11 days): 4.72 µg/mL
Stability of Plant-Derived Cannabinoid Compounds in AB Red (stored at 21-25° C., 12 days): 4.62 µg/mL
Stability of Plant-Derived Cannabinoid Compounds in AB Red (stored at 21-25° C., 15 days): 4.80 µg/mL
Stability of Plant-Derived Cannabinoid Compounds in AB Red (stored at 21-25° C., 16 days): 4.75 µg/mL
Stability of Plant-Derived Cannabinoid Compounds in AB Red (stored at 21-25° C., 17 days): 4.63 µg/mL
Stability of Plant-Derived Cannabinoid Compounds in AB Red (stored at 21-25° C., 18 days): 4.70 µg/mL
Stability of Plant-Derived Cannabinoid Compounds in AB Red (stored at 21-25° C., 19 days): 4.66 µg/mL
Stability of Plant-Derived Cannabinoid Compounds in AB Red (stored at 21-25° C., 22 days): 4.71 µg/mL
Stability of Plant-Derived Cannabinoid Compounds in AB Red (stored at 21-25° C., 23 days): 4.67 µg/mL
Stability of Plant-Derived Cannabinoid Compounds in AB Red (stored at 21-25° C., 24 days): 4.78 µg/mL
Stability of Plant-Derived Cannabinoid Compounds in AB Red (stored at 21-25° C., 25 days): 4.56 µg/mL
Stability of Plant-Derived Cannabinoid Compounds in AB Red (stored at 21-25° C., 26 days): 4.77 µg/mL
Stability of Plant-Derived Cannabinoid Compounds in AB Red (stored at 21-25° C., 29 days): 4.78 µg/mL
Stability of Plant-Derived Cannabinoid Compounds in AB Red (stored at 21-25° C., 30 days): 4.73 µg/mL
Stability of Plant-Derived Cannabinoid Compounds in AB Red (stored at 21-25° C., 60 days): 4.61 µg/mL
Stability of Plant-Derived Cannabinoid Compounds in AB Red (stored at 21-25° C., 90 days): 4.55 µg/mL
Stability of Plant-Derived Cannabinoid Compounds in AB Red (stored at 21-25° C., 120 days): 4.61 µg/mL
Stability of Plant-Derived Cannabinoid Compounds in AB Red (stored at 21-25° C., 150 days): 4.65 µg/mL
Stability of Plant-Derived Cannabinoid Compounds in AB Red (stored at 21-25° C., 180 days): 4.53 µg/mL
Stability of Plant-Derived Cannabinoid Compounds in AB Red (stored at 21-25° C., 210 days): 4.63 µg/mL
Stability of Plant-Derived Cannabinoid Compounds in AB Red (stored at 21-25° C., 240 days): 4.56 µg/mL
Stability of Plant-Derived Cannabinoid Compounds in AB Red (stored at 21-25° C., 270 days): 4.68 µg/mL
Stability of Plant-Derived Cannabinoid Compounds in AB Red (stored at 21-25° C., 300 days): 4.47 µg/mL
Stability of Plant-Derived Cannabinoid Compounds in AB Red (stored at 21-25° C., 330 days): 4.57 µg/mL
Stability of Plant-Derived Cannabinoid Compounds in AB Red (stored at 21-25° C., 360 days): 4.47 µg/mL
Stability of Plant-Derived Cannabinoid Compounds in AB Red (stored at 21-25° C., 390 days): 4.57 µg/mL
Stability of Plant-Derived Cannabinoid Compounds in AB Red (stored at 21-25° C., 420 days): 4.51 µg/mL
Stability of Plant-Derived Cannabinoid Compounds in AB Red (stored at 21-25° C., 450 days): 4.63 µg/mL
Stability of Plant-Derived Cannabinoid Compounds in AB Red (stored at 21-25° C., 480 days): 4.44 µg/mL
Stability of Plant-Derived Cannabinoid Compounds in AB Red (stored at 21-25° C., 510 days): 4.37 µg/mL
Stability of Plant-Derived Cannabinoid Compounds in AB Red (stored at 21-25° C., 540 days): 4.49 µg/mL
Stability of Plant-Derived Cannabinoid Compounds in AB Red (stored at 21-25° C., 570 days): 4.36 µg/mL
